# ± gives the expanded uncertainty stated by the source.
# Experiments:
# [1] = refractive index (Na D-line) (dimensionless); settings: 298.15 K; 101.33 kPa; Liquid; Standard Abbe refractometry
# [2] = 298.15 K; 101.33 kPa; Liquid
Compound,refractive index [1],mass density [2] [kg/m3]
"Cc1cccc(C)c1 [1,3-dimethylbenzene]",1.4947 ± 0.0007,860.3 ± 0.5
C1CCOC1 [tetrahydrofuran],1.4047 ± 0.0007,881.9 ± 1.3

# Second part, the compound after the results:
refractive index [1],mass density [2] [kg/m3],Compound
1.3854 ± 0.0007,679.4 ± 0.8,CCCCCCC [heptane]
1.3747 ± 0.0007,655.1 ± 0.7,CCCCCC [hexane]
1.3954 ± 0.0007,698.5 ± 0.8,CCCCCCCC [octane]
